Assay results published in US9550742B2, “11-OXO-10,11-dihydrodibenzo[B,F][1,4]thiazepine S-oxide derivatives and their use as dopamine D2 receptor antagonists” (The United States of America, as Represented by the …, priority 2013, dated 2017).
Like-named read-outs stand apart in the source and are kept apart here.

Columns and labels:
[1] = target: T1, D2 DAR (Homo sapiens, UniProt P14416); assay: D2 Ca^2+ screen assay (calcium accumulation, HEK293 T-REx with Gqi5); format: cell-based
T1 construct: expressed in transfected cells; host or cells: HEK293 T-REx, Tet-inducible, with chimeric G-protein Gqi5
Method: The resting concentration of calcium ions (Ca^2+) in the cells' cytoplasm is normally maintained in the range of 10-100 nM. To maintain this low concentration, Ca^2+ is actively pumped from the cytosol to the extracellular space and into the endoplasmic reticulum (ER), and sometimes into the mitochondria. Signaling occurs when the cell is stimulated to release Ca^2+ from intracellular stores. The most common signaling pathway that increases cytoplasmic calcium concentration is the phospholipase C (PLC) pathway. […] IP3 diffuses to the ER, binds to its receptor (IP3 receptor), which is a Ca^2+ channel and, thus, releases Ca^2+ from the ER to the cytosol. To measure this cytosolic Ca^2+ accumulation, we used the Screen Quest™ Fluo-8 Calcium Assay Kit (AAT Bioquest, Sunnyvale, Calif.). Acetoxymethyl (AM) esters bound to Fluo-8™ dye are non-polar molecules that easily cross live cell membranes transporting the dye inside the cell, and are then rapidly hydrolyzed by cellular esterases inside live cells. As Fluo-8™ is freed from AM esters, it binds to Ca^2+ and emits a fluorescent signal at 514 nm that escalates with increasing cytosolic Ca^2±. To measure this calcium flux signal, we used the Functional Drug Screening System (FDSS) (Hamamatsu, Japan), a high throughput screening device that allows optical detection of signal transmissions within living cells in a time-resolving fashion. […] Quest Fluo-8™ calcium reagent was freshly prepared prior to adding to the cells (lyophilized Fluo-8™ dye provided with the kit was re-suspended in 200 μL DMSO as a 500× stock and stored at −20° C.). 2 μL/well of Quest Fluo-8™ calcium dye diluted in HBSS +10 mM HEPES buffer (for every 10 mL buffer, 1 mL of 10× quencher provided in the kit and 20 μL of 500×DMSO stock dye were added) was added to cells with a Multi-Drop Combi (ThermoScientific) and incubated for 45-90 min in the dark at ambient temperature. Then, the plates were introduced into the FDSS where they were pinned with 23 nL of test compound or dopamine controls and were read by FDSS in non-stimulated mode for 180 sec for detection of agonists. […]

[2] = target: T2, D2 GPCR receptor (DAR) (Homo sapiens, UniProt P14416); assay: D2 beta-arrestin functional assay (PathHunter, CHO); format: cell-based; conditions: for D3/D2 beta-arrestin IC50ratio: ratio of D3 (Example 4) to D2 (Example 2) beta arrestin assay
T2 construct: host or cells: CHO PathHunter β-arrestin cells
Source text: For a secondary-screen and selectivity assays, DAR PathHunter® β-arrestin GPCR cell lines from DiscoveRx (Fremont, Calif.). In this) were used. In the D2 Receptor PathHunter® β-arrestin GPCR cell line, the D2 GPCR receptor (DAR) is overexpressed and fused with a small 42-amino acid fragment of β-galactosidase called ProLink™ on a CHO cellular background expressing a fusion protein of β-arrestin and a larger N-terminal deletion mutant of β-galactosidase (“enzyme acceptor”). When DAR is activated by dopamine, it stimulates binding of β-arrestin to the ProLink-tagged DAR and the two complementary parts of β-galactosidase form a functional enzyme. When substrate (PathHunter® Detection reagent) is added, β-galactosidase hydrolyzes it and generates a chemiluminescent signal.
D2 Receptor PathHunter® β-arrestin cells were seeded at 2,100 cells/well in 3 μL/well media (DiscoveRx Plating Reagent 2) with MultiDrop Combi dispenser (Thermo Scientific, Logan, Utah) onto white tissue culture treated 1,536-well Aurora plates (Brooks Automation, Chelmsford, Mass.) and allowed to attach overnight at 37° C., 5% CO2. Next, 23 nL/well of compound solutions in DMSO were added with a pintool transfer (Kalypsis, San Diego, Calif.). The cells were stimulated by compounds for 90 min at 37° C., 5% CO2, after which 1.5 μL/well of DiscoveRx detection reagent was added with BioRAPTR FRD dispenser. The detection reagent was prepared by mixing of Galacton Star Substrate, Emerald II solution and PathHunter buffer (supplied by the assay kit) together at a 1:5:19 proportion just prior to dispensing. The plates were incubated at ambient temperature for 1 hr, and the luminescent signal was read on a ViewLux plate reader (PerkinElmer, Waltham, Mass.).

[3] = target: D2L human dopamine receptors (Homo sapiens, UniProt P14416); assay: D2 binding assay ([^3H]methylspiperone, HEK membranes); conditions: for D3/D2 binding Ki ratio: ratio of D3 (Example 5) to D2 (Example 3) binding assay
Method: Compounds were tested for differences in affinity between three dopamine receptor subtypes using radio-labeled ligand binding assays. The first assay determined the Ki value of the compounds for the D2 DAR subtype using stable HEK cell lines expressing the D2L human dopamine receptors (Codex Biosciences, Gaithersburg, Md.). Cells were cultured in Dulbecco's modified Eagle's Medium containing 10% FBS, 1,000 units/mL Penicillin, 1,000 mg/mL Streptomycin, 100 mM Sodium Pyruvate, 1 μg/mL Gentamicin, and […] G418. All cells were maintained at 37° C. in 5% CO2 and 90% humidity. For radioligand binding assays, cells were removed mechanically using calcium and magnesium-free Earle's Balanced Salt Solution (EBSS(−)). Intact cells were collected by centrifugation and then lysed with 5 mM Tris-HCl and 5 mM MgCl2 at pH 7.4 in a glass homogenizer. Homogenates were centrifuged at 20,000×g for 30 minutes. The membranes were re-suspended in EBSS (pH 7.4) and protein concentration was determined using a Bradford assay according to the manufacturer's recommendations (Bio-Rad). Membranes were diluted to 24 mg/mL. […] Membrane preparations were incubated for 90 min at room temperature with various concentrations of radioligand in a reaction volume of 250 μL EBSS containing 200 mM sodium metabisulfite. Non-specific binding was determined in the presence of 4 μM (+)-butaclamol. Bound ligand was separated from unbound by filtration through GF/C filters using a PerkinElmer cell harvester with ice cold EBSS (4 washes) and quantified on a Top-count (PerkinElmer) after addition of scintillation solution. […] In order to determine the affinity of a given compound for a receptor type, competition-binding assays were performed. […] Reactions were incubated, terminated, and quantified as indicated above.

[4] = target: D3 human dopamine receptors (Homo sapiens, UniProt P35462); assay: D3 binding assay ([^3H]methylspiperone, HEK293 membranes)
Method: Cells were cultured in Dulbecco's modified Eagle's Medium containing 10% FBS, 1,000 units/mL Penicillin, 1,000 mg/mL Streptomycin, 100 mM Sodium Pyruvate, 1 μg/mL Gentamicin, and […] G418. All cells were maintained at 37° C. in 5% CO2 and 90% humidity. For radioligand binding assays, cells were removed mechanically using calcium and magnesium-free Earle's Balanced Salt Solution (EBSS(−)). Intact cells were collected by centrifugation and then lysed with 5 mM Tris-HCl and 5 mM MgCl2 at pH 7.4 in a glass homogenizer. […] Membrane preparations were incubated for 90 min at room temperature with various concentrations of radioligand in a reaction volume of 250 μL EBSS containing 200 mM sodium metabisulfite. […] Bound ligand was separated from unbound by filtration through GF/C filters using a PerkinElmer cell harvester with ice cold EBSS (4 washes) and quantified on a Top-count (PerkinElmer) after addition of scintillation solution. […] In order to determine the affinity of a given compound for a receptor type, competition-binding assays were performed. […] Reactions were incubated, terminated, and quantified as indicated above.

[5] = target: D3 dopamine receptor (DAR) (Homo sapiens, UniProt P35462); assay: D3 beta-arrestin functional assay (PathHunter, CHO); format: cell-based; conditions: dose response curve; read-out: D3 β-arrestin assay AC50
Source text: A CHO cell line was engineered to overexpress D3 dopamine receptor (DAR) and fused with a small 42-amino acid fragment of β-gal called ProLink™. In addition, these cells stably express a fusion protein of β-arrestin and a larger N-terminal deletion mutant of β-galactosidase (“enzyme acceptor”). When DAR is activated by dopamine, it stimulates binding of β-arrestin to ProLink-tagged DARs, and the two complementary parts of β-galactosidase form a functional enzyme. When substrate (PathHunter® Detection reagent) is added, βgalactosidase hydrolyzes it and generates a chemiluminescent signal.
For the 1,536-well assay, D3 PathHunter® β-arrestin cells were seeded at 2,100 cells/well in 3 μL/well media (DiscoveRx Plating Reagent 2) with MultiDrop Combi dispenser (Thermo Scientific, Logan, Utah) onto white tissue culture treated 1,536-well Aurora plates (Brooks Automation, Chelmsford, Mass.) and allowed to attach overnight at 37° C., 5% CO2. Next, 23 nL/well of compound solutions in DMSO were added with a pintool transfer (Kalypsis, San Diego, Calif.). The cells were stimulated by compounds for 90 minutes at 37° C., 5% CO2, after which 1.5 μL/well of DiscoveRx detection reagent was added with BioRAPTR FRD dispenser. […] The plates were incubated at ambient temperature for 1 h, and the luminescent signal was read on ViewLux plate reader (PerkinElmer, Waltham, Mass.).

[6] = dopamine D2 calcium release assay of Example 1, read-out: Ca^2+ AC50

T2 sequence (P14416 whole entry): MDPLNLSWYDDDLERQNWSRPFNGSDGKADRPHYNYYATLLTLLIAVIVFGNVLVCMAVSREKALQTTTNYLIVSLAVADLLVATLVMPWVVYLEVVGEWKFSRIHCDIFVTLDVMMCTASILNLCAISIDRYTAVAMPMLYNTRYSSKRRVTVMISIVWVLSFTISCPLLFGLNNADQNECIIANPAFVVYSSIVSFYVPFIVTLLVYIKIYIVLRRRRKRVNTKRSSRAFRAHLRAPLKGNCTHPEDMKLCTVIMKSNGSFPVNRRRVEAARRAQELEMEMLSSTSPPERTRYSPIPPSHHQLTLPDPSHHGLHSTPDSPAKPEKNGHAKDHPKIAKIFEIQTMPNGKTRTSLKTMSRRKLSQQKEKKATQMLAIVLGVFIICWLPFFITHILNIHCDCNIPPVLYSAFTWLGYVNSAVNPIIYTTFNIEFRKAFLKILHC
Sequence of D2L human dopamine receptors (P14416 whole entry): as above
T1 sequence (P14416 whole entry): as above
Sequence of D3 dopamine receptor (DAR) (P35462 whole entry): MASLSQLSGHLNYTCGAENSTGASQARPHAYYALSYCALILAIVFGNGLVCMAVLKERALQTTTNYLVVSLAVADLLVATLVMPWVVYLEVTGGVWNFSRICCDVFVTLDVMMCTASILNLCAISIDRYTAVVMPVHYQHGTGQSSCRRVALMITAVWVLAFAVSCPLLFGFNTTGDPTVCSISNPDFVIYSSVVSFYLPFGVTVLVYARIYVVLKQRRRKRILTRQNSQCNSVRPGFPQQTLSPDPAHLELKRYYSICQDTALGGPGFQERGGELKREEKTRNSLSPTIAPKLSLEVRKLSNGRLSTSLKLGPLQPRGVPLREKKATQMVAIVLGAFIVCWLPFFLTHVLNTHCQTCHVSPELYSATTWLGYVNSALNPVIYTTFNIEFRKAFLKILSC
Sequence of D3 human dopamine receptors (P35462 whole entry): as above

SMILES	AC50 [1, 6] [nM]	D3/D2 beta-arrestin IC50ratio [2]	D3/D2 binding Ki ratio [3]	AC50 ([1]; dose response curve, read-out: D2 Ca^2+ assay AC50) [nM]	Ki [4] [nM]	AC50 [5] [nM]	AC50 ([2]; dose response curve, read-out: D2 β-arrestin assay AC50) [nM]	Ki [3] [nM]
CN1C(=O)c2ccccc2[S+]([O-])c2ccc(C(=O)NCCc3cccs3)cc21 (racemic) [Compound 32, 10-Methyl-11-oxo-N-(2-(thiophen-2-yl)ethyl)-10,11-dihydrodibenzo[b,f][1,4]thiazepine-8-carboxamide 5-oxide]	< 1000	22.3	28.7					
CCN1C(=O)c2ccccc2[S@+]([O-])c2ccc(C(=O)N[C@H](C)c3ccc(Br)cc3)cc21 [Compound 49, (R)-N-(1-(4-Bromophenyl)ethyl)-10-ethyl-11-oxo-10,11-dihydrodibenzo[b,f][1,4]thiazepine-8-carboxamide 5-(S)-oxide]	< 1000	7.1	1.3					
CN1C(=O)c2ccccc2[S@+]([O-])c2ccc(C(=O)NCCN3CCCC3)cc21 [Compound 54, 10-Methyl-11-oxo-N-(2-(pyrrolidin-1-yl)ethyl)-10,11-dihydrodibenzo[b,f][1,4]thiazepine-8-carboxamide 5-(S)-oxide]	< 1000	7.2	1.7					
CN1C(=O)c2ccccc2[S@+]([O-])c2ccc(C(=O)NCc3cccnc3)cc21 [Compound 53, 10-Methyl-11-oxo-N-(pyridin-3-ylmethyl)-10,11-dihydrodibenzo[b,f][1,4]thiazepine-8-carboxamide 5-(S)-oxide]	< 1000	5.0	70.0					
CCN1C(=O)c2ccccc2[S@+]([O-])c2ccc(C(=O)N[C@H](C)c3ccc4ccccc4c3)cc21 [Compound 50, (R)-10-Ethyl-N-(1-(naphthalen-2-yl)ethyl)-11-oxo-10,11-dihydrodibenzo[b,f][1,4]thiazepine-8-carboxamide 5-(S)-oxide]	< 1000	11.2	16.2					
CCN1C(=O)c2ccccc2[S@+]([O-])c2ccc(C(=O)NCc3ccc(OC)cc3)cc21 [Compound 38, 10-Ethyl-N-(4-methoxybenzyl)-11-oxo-10,11-dihydrodibenzo[b,f][1,4]thiazepine-8-carboxamide 5-(S)-oxide]	< 1000	2.5						
CN1C(=O)c2ccccc2[S@+]([O-])c2ccc(C(=O)NCc3ccc(Br)cc3)cc21 [Compound 52, N-(4-bromobenzyl)-10-methyl-11-oxo-10,11-dihydrodibenzo[b,f][1,4]thiazepine-8-carboxamide 5-(S)-oxide]	< 1000	4.6	1.5					
CCN1C(=O)c2ccccc2[S@+]([O-])c2ccc(C(=O)NCc3ccc(C#N)cc3)cc21 [Compound 48, N-(4-Cyanobenzyl)-10-ethyl-11-oxo-10,11-dihydrodibenzo[b,f][1,4]thiazepine-8-carboxamide 5-(S)-oxide]	< 1000	6.3	5.7					
CCN1C(=O)c2ccccc2[S+]([O-])c2ccc(C(=O)NCc3ccc(OC)cc3)cc21 (stereo not drawn) [Compound 1, 10-Ethyl-N-(4-methoxybenzyl)-11-oxo-10,11-dihydrodibenzo[b,f][1,4]thiazepine-8-carboxamide 5-oxide]	< 1000	2.0	6.0	281	480	5760	2890	80
CCN1C(=O)c2ccccc2[S@+]([O-])c2ccc(C(=O)NCc3ccc(F)cc3)cc21 [Compound 47, 10-Ethyl-N-(4-fluorobenzyl)-11-oxo-10,11-dihydrodibenzo[b,f][1,4]thiazepine-8-carboxamide 5-(S)-oxide]	< 1000	5.6	2.6					
CN1C(=O)c2ccccc2[S@+]([O-])c2ccc(C(=O)NCc3ccc(Cl)cc3)cc21 [Compound 51, N-(4-Chlorobenzyl)-10-methyl-11-oxo-10,11-dihydrodibenzo[b,f][1,4]thiazepine-8-carboxamide 5-(S)-oxide]	< 1000	4.5						
